One compound from patent US11780821B2, “Inhibitors of fibroblast activation protein” (Praxis Biotech LLC, priority 2017, dated 2023) can be followed below.

Broadly, the AUC(0-t) is the area under the concentration-time curve up to a stated or last time point.

The target of one data set is T1, plasma FAP activity (Rattus norvegicus, UniProt A0A9K3Y732).
T1 construct: from tissue; host or cells: rat plasma after oral dosing
T1 sequence (A0A9K3Y732 1-761): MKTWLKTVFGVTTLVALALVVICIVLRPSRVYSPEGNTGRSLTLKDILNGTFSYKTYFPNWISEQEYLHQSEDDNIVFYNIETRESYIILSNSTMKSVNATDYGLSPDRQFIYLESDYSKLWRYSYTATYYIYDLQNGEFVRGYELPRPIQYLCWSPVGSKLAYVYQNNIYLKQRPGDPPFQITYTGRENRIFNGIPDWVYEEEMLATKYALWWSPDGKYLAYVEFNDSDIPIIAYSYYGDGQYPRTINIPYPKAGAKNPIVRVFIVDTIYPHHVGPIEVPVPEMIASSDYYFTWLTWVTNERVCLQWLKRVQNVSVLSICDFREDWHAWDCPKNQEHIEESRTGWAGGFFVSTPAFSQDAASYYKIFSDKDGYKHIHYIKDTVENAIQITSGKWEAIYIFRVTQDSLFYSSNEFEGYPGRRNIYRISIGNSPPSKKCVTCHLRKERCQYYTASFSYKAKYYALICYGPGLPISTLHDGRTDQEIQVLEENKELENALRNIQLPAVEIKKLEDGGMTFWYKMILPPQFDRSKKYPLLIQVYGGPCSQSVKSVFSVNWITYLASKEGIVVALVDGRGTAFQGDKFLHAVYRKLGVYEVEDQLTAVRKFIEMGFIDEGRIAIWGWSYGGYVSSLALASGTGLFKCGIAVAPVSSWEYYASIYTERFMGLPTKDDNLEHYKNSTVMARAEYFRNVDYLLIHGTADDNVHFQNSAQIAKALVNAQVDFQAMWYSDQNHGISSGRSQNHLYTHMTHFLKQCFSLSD
Description: rhFGF21 administration in conjunction with FAP inhibition in vivo. The arrangement: species or system Sprague Dawley rats. The source says: To determine if exemplary compounds of the invention can contribute to extend the half-life of hFGF21 in vivo, rats were orally dosed with vehicle or compound 13 (an exemplary compound) followed by sub-therapeutic dose of rhFGF21.
Male Sprague Dawley rats, approximately 7-8 weeks old (˜250 g), were obtained from the vivarium of Universidad Católica de Chile (Santiago, Chile). Animals were acclimated for a minimum period of 4 days upon arrival at the testing facility. At the day of study, two rats were anesthetized using sevoflurane and subjected to surgical implantation of catheters in carotid artery and jugular vein. Catheter plugs were fixed to the external ends of the catheters and kept patent using an anti-coagulant heparinized saline solution containing 25 U/mL Heparin (Fresenius Kabi, Laboratorio Sanderson) in 0.9% NaCl Apiroflex (Fresenius Kabi, Laboratorio Sanderson). After surgical recovery, rats were weighed and identified by marking the tail with numbers using a non-toxic permanent marker for designation of treatments described in Table 9.
Compound 13 (an exemplary compound) was formulated at 5 mg/ml in vehicle PEG200/dH2O (50/50, v/v) for oral administration and rhFGF21 was formulated in 0.9% NaCl Apiroflex at 100 μg/mL. […]

Data set [1] is described as follows: PK study in hamsters (IV and PO). The format is in vivo. Conditions: male, Golden Syrian, plasma, hamster. As to the method:
To assess the effect of FAP inhibition by an exemplary compound over the cleavage of endogenously produced FGF21, in vivo PK/PD studies were conducted in male Golden Syrian hamsters following single intravenous and oral administration of an exemplary compound. Compound 13 (an exemplary compound) was formulated in dimethyl sulfoxide (DMSO)/Solutol® HS 15 (BASF, Germany)/phosphate buffered saline (PBS, Sigma, USA) (5/5/90, v/v/v) at 0.2 mg/mL for IV injection and polyethylene glycol (PEG) 200 (Sigma, USA)/water for injection (WFI; Tai-Yu, Taiwan) (50/50, v/v) at 1 mg/mL for PO administration. The dosing volumes were 5 mL/kg for IV and 10 mL/kg for PO. Hamsters from Group 1 received an intravenous bolus via jugular vein of 1 mg/kg of compound 13 (an exemplary compound). On the other hand, hamsters from Group 2 received an intragastric bolus of 10 mg/kg of compound 13 (an exemplary compound) using feeding needles. Plasma samples were collected at 5, 10, 15, 30, 60, 120, 240, 360, 480 and 1440 minutes post-dose in both IV and PO groups. Hamsters from group 3 were not dosed and were used to collect samples of zero time point and baseline levels of FAP activity and endogenous FGF21. […]

`N#C[C@@H]1CC(F)(F)CN1C(=O)CNC(=O)c1ccncc1-c1ccccc1` [Compound 13, (S)—N-(2-(2-cyano-4,4-difluoropyrrolidin-1-yl)-2-oxoethyl)-3-phenylisonicotinamide]: the “amount of rhFGF21 detected through time in the plasma” value at plasma FAP activity (50 mg/kg PO pre-treatment, then rhFGF21 90 μg/Kg IV) is “increased”. At plasma FAP activity (oral single dose of 50 mg/kg), the “plasma FAP activity” value is reported as “potently suppressed”. In addition, the AUC(0-t) amounted to 255 ng·h/mL in data set [1] (intravenous 1 mg/kg) and 350 ng·h/mL in data set [1] (oral 10 mg/kg).
